#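 Compound exposure: 48 hours, 5 concentrations, 96-well plates. Definition used: TGI = concentration required for complete inhibition of growth.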
# Key:
# Experiment in all cases: inhibition of tumour cell growth, NCI panel, 48 h
# HT29 colon = test system: HT29 colon
# MCF7 breast = test system: MCF7 breast
# MOLT-4 leukemia = test system: MOLT-4 leukemia
# 786-0 renal = test system: 786-0 renal
# LOX IMVI melanoma = test system: LOX IMVI melanoma
# OVCAR-3 ovarian = test system: OVCAR-3 ovarian
# KM12 colon = test system: KM12 colon
# HCT-116 colon = test system: HCT-116 colon
# SK-MEL-5 melanoma = test system: SK-MEL-5 melanoma
# NCI-H226 lung = test system: NCI-H226 lung
# SNB-19 CNS = test system: SNB-19 CNS
# COLO 205 colon = test system: COLO 205 colon
# M14 melanoma = test system: M14 melanoma
# UACC-257 melanoma = test system: UACC-257 melanoma
# NCI-H460 lung = test system: NCI-H460 lung
# SF-268 CNS = test system: SF-268 CNS
# BT-549 breast = test system: BT-549 breast
# MDA-MB-231 breast = test system: MDA-MB-231 breast
# NCI-H522 lung = test system: NCI-H522 lung
SMILES,TGI (HT29 colon),TGI (MCF7 breast),TGI (MOLT-4 leukemia),TGI (786-0 renal),TGI (LOX IMVI melanoma),TGI (OVCAR-3 ovarian),TGI (KM12 colon),TGI (HCT-116 colon),TGI (SK-MEL-5 melanoma),TGI (NCI-H226 lung),TGI (SNB-19 CNS),TGI (COLO 205 colon),TGI (M14 melanoma),TGI (UACC-257 melanoma),TGI (NCI-H460 lung),TGI (SF-268 CNS),TGI (BT-549 breast),TGI (MDA-MB-231 breast),TGI (NCI-H522 lung)
O=c1c2ccccc2ncn1COCc1ccccc1,> 100 µM,> 100 µM,> 100 µM,> 100 µM,> 100 µM,> 100 µM,> 100 µM,> 100 µM,> 100 µM,> 100 µM,> 100 µM,> 100 µM,> 100 µM,> 100 µM,–,–,–,–,–
CCCNC(=O)Cn1c2c(c3ccccc31)CCCC2,> 100 µM,> 100 µM,> 100 µM,> 100 µM,> 100 µM,> 100 µM,–,> 100 µM,> 100 µM,–,> 100 µM,> 100 µM,> 100 µM,> 100 µM,> 100 µM,> 100 µM,> 100 µM,–,–
Cc1cc(OP2(=O)NCc3ccncc3O2)ccc1Cl (centres undefined),> 100 µM,> 100 µM,> 100 µM,> 100 µM,> 100 µM,> 100 µM,> 100 µM,> 100 µM,> 100 µM,> 100 µM,> 100 µM,> 100 µM,> 100 µM,> 100 µM,> 100 µM,–,> 100 µM,> 100 µM,–
N#CC12CC(C=O)=C(N)C1(C#N)CC(C=O)=C2N (centres undefined),> 100 µM,> 100 µM,> 100 µM,> 100 µM,> 100 µM,–,> 100 µM,> 100 µM,54.1 µM,> 100 µM,> 100 µM,> 100 µM,> 100 µM,> 100 µM,–,> 100 µM,–,> 100 µM,> 100 µM
CCOC(=O)C(=CNc1ccc(S(N)(=O)=O)cc1)C(=O)OCC,> 100 µM,> 100 µM,> 100 µM,> 100 µM,> 100 µM,> 100 µM,–,> 100 µM,> 100 µM,> 100 µM,> 100 µM,> 100 µM,> 100 µM,> 100 µM,> 100 µM,> 100 µM,–,> 100 µM,> 100 µM
C[C@@H](c1ccccc1)N1C[C@@H](c2ccc3c(c2)OCO3)[C@@H]2C(=O)CCC[C@@H]21,> 100 µM,71.5 µM,77.6 µM,> 100 µM,> 100 µM,–,> 100 µM,> 100 µM,> 100 µM,> 100 µM,> 100 µM,42.4 µM,36.9 µM,> 100 µM,> 100 µM,> 100 µM,–,> 100 µM,> 100 µM
CCc1cc2c(cc1C(=O)CCC(=O)O)CC1(C2)Cc2cc(CC)c(C(=O)CCC(=O)O)cc2C1,> 100 µM,> 100 µM,> 100 µM,> 100 µM,> 100 µM,> 100 µM,> 100 µM,> 100 µM,> 100 µM,> 100 µM,> 100 µM,> 100 µM,> 100 µM,> 100 µM,> 100 µM,> 100 µM,–,> 100 µM,> 100 µM

# Source: PubChem BioAssay (NCI)
